Measured values as given in article PMC8470823, “8-Amino-6-Methoxyquinoline—Tetrazole Hybrids: Impact of Linkers on Antiplasmodial Activity” (Molecules, 2021).
Read-outs that look alike come from different tables or passages of the source.

Experiments:
P. falciparum NF54 = test: In vitro microplate assay against P. falciparum (3H-hypoxanthine incorporation); assay type: cell-based, Plasmodium falciparum; details: for S.I. = IC50 (Cyt.)/IC50 (P.f. NF54): selectivity index: L-6 cells IC50 / P.f. NF54 IC50
Description: Chloroquine (Sigma C6628) was used as standard. Compounds were dissolved in DMSO at 10 mg/mL and added to parasite cultures incubated in RPMI 1640 medium without hypoxanthine, supplemented with HEPES (5.94 g/L), NaHCO3 (2.1 g/L), neomycin (100 U/mL), Albumax (5 g/L) and washed human red cells A^+ at 2.5% hematocrit (0.3% parasitemia). Serial drug dilutions of 11 3-fold dilution steps covering a range from 100 to 0.002 μg/mL were prepared. […] After 48 h, 0.05 mL of ^3H-hypoxanthine (=0.5 μCi) was added to each well of the plate. The plates were incubated for a further 24 h under the same conditions. The plates were then harvested with a Betaplate cell harvester (Wallac, Zurich, Switzerland). The red blood cells were transferred onto a glass fiber filter and washed with distilled water. The dried filters were inserted into a plastic foil with 10 mL of scintillation fluid and counted in a Betaplate liquid scintillation counter (Wallac, Zurich, Switzerland). IC50 values were calculated from sigmoidal inhibition curves by linear regression using Microsoft Excel. Artemisinin and chloroquine were used as control.

[1] = In vitro cytotoxicity with L-6 cells (Alamar Blue); assay type: cell-based, rat
Description: (§1) Serial drug dilutions of 11 3-fold dilution steps covering a range from 100 to 0.002 μg/mL were prepared. After 70 h of incubation, the plates were inspected under an inverted microscope to assure the growth of the controls and sterile conditions. Then, 0.01 mL of Alamar Blue was added to each well and the plates incubated for another 2 h. The plates were read with a Spectramax Gemini XS microplate fluorometer (Molecular Devices Cooperation, Sunnyvale, CA, USA) using an excitation wavelength of 536 nm and an emission wavelength of 588 nm. The IC50 values were calculated by linear regression from the sigmoidal dose inhibition curves using SoftmaxPro software (Molecular Devices Cooperation, Sunnyvale, CA, USA). Podophyllotoxin (Sigma P4405) was used as control.

L-6 cells = test: In vitro cytotoxicity with L-6 cells (Alamar Blue); assay type: cell-based, rat
Description: as §1

[2] = Plasmodium falciparum, chloroquine-sensitive strain NF54, erythrocytic stages, average of four determinations, read-out: P.f. NF54 IC50
[3] = rat, Cytotoxicity L-6 Cells IC50
[4] = rat skeletal myoblasts, average of four determinations, read-out: Cytotoxicity L-6 Cells IC50

Row | Compound | IC50 (P. falciparum NF54; [2]) [nM] | S.I. = IC50 (Cyt.)/IC50 (P.f. NF54) (P. falciparum NF54) | IC50 at 72 h [1, 3] [µM] | further results
1 | COc1cc(NCCNC(c2ccc(F)cc2)c2nnnn2C(C)(C)C)c2ncccc2c1 (stereo not drawn) [Compound 9, N^1-((4-Fluorophenyl)(tert-butyl-1H-tetrazol-5-yl)methyl)-N^2-(6-methoxyquinolin-8-yl)ethan-1,2-diamine] | 7050 | 7.86 | 55.4 | 
2 | COc1cc(NC(c2ccc(C(C)C)cc2)c2nnnn2C(C)(C)C)c2ncccc2c1 (stereo not drawn) [Compound 20, 6-Methoxy-N-((4-(propan-2-yl)phenyl)(1-tert-butyl-1H-tetrazol-5-yl)methyl)quinolin-8-amine] | 2000 |  | 119 to 124 | IC50 (L-6 cells; rat, 72 h): 119 µM
3 | COc1cc(NC(c2ccc(C(F)(F)F)cc2)c2nnnn2C(C)(C)C)c2ncccc2c1 (stereo not drawn) [Compound 18, 6-Methoxy-N-((1-tert-butyl-1H-tetrazol-5-yl)(4-(trifluoromethyl)phenyl)methyl)quinolin-8-amine] | 644 | 273.3 | 176 | 
4 | COc1cc(NC(c2ccc(F)cc2)c2nnnn2C(C)(C)C)c2ncccc2c1 (stereo not drawn) [Compound 15, N-((4-Fluorophenyl)(1-tert-butyl-1H-tetrazol-5-yl)methyl)-6-methoxyquinolin-8-amine] | 2680 |  | 119 to 124 | IC50 (L-6 cells; rat, 72 h): 124 µM
5 | COc1cc(NC(c2ccc(Cl)cc2)c2nnnn2C(C)(C)C)c2ncccc2c1 (stereo not drawn) [Compound 16, N-((4-Chlorophenyl)(1-tert-butyl-1H-tetrazol-5-yl)methyl)-6-methoxyquinolin-8-amine] | 743 | 318.3 | 236 | 
6 | COc1cc(NCCNC(c2ccccc2)c2nnnn2C(C)(C)C)c2ncccc2c1 (stereo not drawn) [Compound 8, N^1-(6-Methoxyquinolin-8-yl)-N^2-((phenyl)(tert-butyl-1H-tetrazol-5-yl)methyl)ethan-1,2-diamine] | 6090 | 9.52 | 58 | 
7 | CCN(CC)CCCC(C)Nc1ccnc2cc(Cl)ccc12 (stereo not drawn) [CQ, chloroquine, reference compound] |  | 23,313 |  | IC50 (P. falciparum NF54; Plasmodium falciparum, NF54, read-out: P.f. NF54 IC50): 3.9 nM; IC50 at 72 h [1, 4]: 90.9 µM
8 | CCCCCCCC(Nc1cc(OC)cc2cccnc12)c1nnnn1C(C)(C)C (stereo not drawn) [Compound 22, 6-Methoxy-N-(1-(1-tert-butyl-1H-tetrazol-5-yl)octyl)quinolin-8-amine] | 324 | 168.9 | 54.7 | 
9 | COc1cc(NC(c2ccc(C)cc2)c2nnnn2C(C)(C)C)c2ncccc2c1 (stereo not drawn) [Compound 19, 6-Methoxy-N-((4-methylphenyl)(1-tert-butyl-1H-tetrazol-5-yl)methyl)quinolin-8-amine] | 1040 | 238.9 | 248 | 
10 | CCC(Nc1cc(OC)cc2cccnc12)c1nnnn1C(C)(C)C (stereo not drawn) [Compound 13, 6-Methoxy-N-(1-(1-tert-butyl-1H-tetrazol-5-yl)propyl)quinolin-8-amine] | 23600 | 3.86 | 91.1 | 
11 | COc1cc([C@@H]2c3cc4c(cc3[C@H](O)[C@H]3COC(=O)[C@H]23)OCO4)cc(OC)c1OC [POD, podophyllotoxin, reference compound] |  |  |  | IC50 (L-6 cells; [4]): 0.012 µM
12 | COc1cc(NCCNC(c2ccc(Br)cc2)c2nnnn2C(C)(C)C)c2ncccc2c1 (stereo not drawn) [Compound 11, N^1-((4-Bromophenyl)(tert-butyl-1H-tetrazol-5-yl)methyl)-N^2-(6-methoxyquinolin-8-yl)ethan-1,2-diamine] | 2510 | 13.57 | 34.1 | 
13 | COc1cc(NC(c2ccc(Br)cc2)c2nnnn2C(C)(C)C)c2ncccc2c1 (stereo not drawn) [Compound 17, N-((4-Bromophenyl)(1-tert-butyl-1H-tetrazol-5-yl)methyl)-6-methoxyquinolin-8-amine] | 464 | 208.8 | 96.9 | 
14 | COc1cc(NC(c2ccccc2)c2nnnn2C(C)(C)C)c2ncccc2c1 (stereo not drawn) [Compound 14, 6-Methoxy-N-((phenyl)(1-tert-butyl-1H-tetrazol-5-yl)methyl)quinolin-8-amine] | 5120 | 9.56 | 49 | 
15 | COc1cc(NCCNC(c2ccc(Cl)cc2)c2nnnn2C(C)(C)C)c2ncccc2c1 (stereo not drawn) [Compound 10, N^1-((4-Chlorophenyl)(tert-butyl-1H-tetrazol-5-yl)methyl)-N^2-(6-methoxyquinolin-8-yl)ethan-1,2-diamine] | 5340 | 17.29 | 92.3 | 
16 | COc1cc(NC(c2cccc3ccccc23)c2nnnn2C(C)(C)C)c2ncccc2c1 (stereo not drawn) [Compound 21, 6-Methoxy-N-((naphthalen-1-yl)(1-tert-butyl-1H-tetrazol-5-yl)methyl)quinolin-8-amine] | 1260 | 137.6 | 173 | 
17 | N^1-(6-Methoxyquinolin-8-yl)-N^2-((tert-butyl-1H-tetrazol-5-yl)(2-(trifluoromethyl)phenyl) methyl)-ethan-1,2-diamine [Compound 12] |  | 7.64 |  | IC50 (P. falciparum NF54; chloroquine-sensitive strain NF54, erythrocytic stages, average of four determinations, read-out: P.f. NF54 IC50): 2920 nM; IC50 (L-6 cells): 22.3 µM
18 | CCC(NCCNc1cc(OC)cc2cccnc12)c1nnnn1C(C)(C)C (stereo not drawn) [Compound 7, N^1-(6-Methoxyquinolin-8-yl)-N^2-(1-(tert-butyl-1H-tetrazol-5-yl)propyl)ethan-1,2-diamine] | 16000 |  | 144 | 
